Results on 55 substances are retold here after article PMC7932537, “Quantitative profiling of protease specificity” (PLoS Computational Biology, 2021).

Assay [1] deals with T1, MMP-2 (Homo sapiens, UniProt P08253).
T1 sequence (P08253 110-660): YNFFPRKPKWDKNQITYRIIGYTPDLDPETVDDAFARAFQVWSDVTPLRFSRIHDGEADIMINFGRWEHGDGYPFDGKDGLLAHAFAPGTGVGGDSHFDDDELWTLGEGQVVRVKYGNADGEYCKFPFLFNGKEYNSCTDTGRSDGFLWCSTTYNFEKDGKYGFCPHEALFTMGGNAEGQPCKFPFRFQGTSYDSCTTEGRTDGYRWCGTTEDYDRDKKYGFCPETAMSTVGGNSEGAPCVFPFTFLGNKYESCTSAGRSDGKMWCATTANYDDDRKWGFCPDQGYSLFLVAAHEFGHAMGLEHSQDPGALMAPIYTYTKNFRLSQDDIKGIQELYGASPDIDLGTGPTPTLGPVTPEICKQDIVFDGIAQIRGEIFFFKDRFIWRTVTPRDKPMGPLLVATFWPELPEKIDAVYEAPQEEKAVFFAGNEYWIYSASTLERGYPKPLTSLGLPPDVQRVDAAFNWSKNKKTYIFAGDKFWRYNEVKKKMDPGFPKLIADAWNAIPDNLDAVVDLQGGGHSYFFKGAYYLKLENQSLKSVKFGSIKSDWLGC
In words: K(obs) of individual phage substrates (set of 1369). Conditions: MMP2. It is filed as biochemical.

The target in a further assay is MMP-9 (Homo sapiens, UniProt P14780). The description is as above. The note with it: MMP9, individual phage substrates, set of 1369 peptides. It is filed as biochemical.
Sequence of MMP-9 (P14780 94-707): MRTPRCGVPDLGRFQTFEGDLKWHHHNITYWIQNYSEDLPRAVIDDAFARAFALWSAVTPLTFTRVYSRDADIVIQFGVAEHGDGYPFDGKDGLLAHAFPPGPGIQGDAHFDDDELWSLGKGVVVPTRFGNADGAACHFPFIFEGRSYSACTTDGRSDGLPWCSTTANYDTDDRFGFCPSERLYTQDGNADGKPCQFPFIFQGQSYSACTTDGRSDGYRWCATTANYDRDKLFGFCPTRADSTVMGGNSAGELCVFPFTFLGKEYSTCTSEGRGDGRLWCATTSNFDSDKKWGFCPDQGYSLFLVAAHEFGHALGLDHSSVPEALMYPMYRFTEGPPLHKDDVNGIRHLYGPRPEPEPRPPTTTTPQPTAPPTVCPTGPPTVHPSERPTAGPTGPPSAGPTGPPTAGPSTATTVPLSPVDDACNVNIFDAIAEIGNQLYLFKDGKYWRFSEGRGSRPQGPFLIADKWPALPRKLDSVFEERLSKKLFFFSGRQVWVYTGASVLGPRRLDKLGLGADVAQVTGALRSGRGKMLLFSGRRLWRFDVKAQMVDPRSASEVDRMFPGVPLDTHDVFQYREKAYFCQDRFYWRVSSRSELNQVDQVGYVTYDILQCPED
Assay [2] deals with MMP-2. In words: Substrate phage display with NGS: relative probability (RP) of P3-P1' tetramer clusters. It is filed as biochemical, human. Conditions: MMP2 - no binning.
[3] abbreviates: individual phage substrates, set of 1369 peptides, cleavage position marked by '-' in the sequence.
The mark [4] stands for this setting: '-' marks the cleavage position (P1-P1').
Setting [5] is: individual phage substrate from the set of 1369 peptides, cleavage position marked by the dash in the sequence.
Setting [6] is: dash in sequence marks cleavage position.
The mark [7] stands for this setting: average relative probability of the P3-P1' tetramer, redundant tetramers have been averaged out.

With AGLDL-LTASG, the “Kobs” value at MMP-2 [1] (setting [3]) and at MMP-9 (setting [4]) was 0 M⁻¹ s⁻¹ in each case.
As for AIYRS-MTASG, the “Kobs” value on MMP-2 [1] (setting [3]) came out at 3344.37 M⁻¹ s⁻¹; at MMP-9 (setting [4]), 2916.17 M⁻¹ s⁻¹.
AMAHS-LTASG: the “Kobs” value at MMP-2 [1] (setting [5]) is 7015.91 M⁻¹ s⁻¹; on MMP-9 (setting [6]) it was 2996.69 M⁻¹ s⁻¹.
Regarding ANAMN-LTASG, the “Kobs” value at MMP-2 [1] (setting [3]) turned out to be 1513.13 M⁻¹ s⁻¹; at MMP-9 (setting [4]), 2761.81 M⁻¹ s⁻¹.
Take APVYA-LTASG: the results for the “Kobs” value on MMP-2 [1] (setting [3]) and at MMP-9 (setting [4]) were 6131.32 M⁻¹ s⁻¹ and 12792.1 M⁻¹ s⁻¹, respectively.
Regarding ARAQH-ITASG, the “Kobs” value at MMP-2 [1] (setting [5]) and on MMP-9 (setting [6]) was 912.511 M⁻¹ s⁻¹ each time.
Regarding ARVGV-LTASG, the “Kobs” value at MMP-2 [1] (setting [5]) was determined as 84.609 M⁻¹ s⁻¹; on MMP-9 (setting [6]) it was 0 M⁻¹ s⁻¹.
With ATASF-LTASG, the figures for the “Kobs” value at MMP-2 [1] (setting [3]) and on MMP-9 (setting [4]) were 5889.62 M⁻¹ s⁻¹ and 27.918 M⁻¹ s⁻¹, respectively.
Consider AVTYA-LTASG, for which the results for the “Kobs” value on MMP-2 [1] (setting [3]) and at MMP-9 (setting [4]) were 1071.29 M⁻¹ s⁻¹ and 2837.92 M⁻¹ s⁻¹, respectively.
Turning to CCAMG-LTASG, the “Kobs” value was found to be 2218.08 M⁻¹ s⁻¹ at MMP-2 [1] (setting [3]) and 4470.66 M⁻¹ s⁻¹ at MMP-9 (setting [4]).
Take CCSLA-LTASG: the entries for the “Kobs” value on MMP-2 [1] (setting [5]) and on MMP-9 (setting [6]) were 551.253 M⁻¹ s⁻¹ and 386.839 M⁻¹ s⁻¹, respectively.
Consider CLLAS-LTASG, for which the “Kobs” value was found to be 6396.07 M⁻¹ s⁻¹ on MMP-2 [1] (setting [5]) and 0 M⁻¹ s⁻¹ on MMP-9 (setting [6]).
Take DAPYF-LTASG: the “Kobs” value at MMP-2 [1] (setting [5]) turned out to be 5667.28 M⁻¹ s⁻¹; at MMP-9 (setting [6]), 8321.48 M⁻¹ s⁻¹.
Take DILRH-LTASG: the entries for the “Kobs” value on MMP-2 [1] (setting [3]) and at MMP-9 (setting [4]) were 5889.62 M⁻¹ s⁻¹ and 2409.72 M⁻¹ s⁻¹, respectively.
As for DLPHC-LTASG, the “Kobs” value was found to be 619.843 M⁻¹ s⁻¹ on MMP-2 [1] (setting [5]) and 355.093 M⁻¹ s⁻¹ at MMP-9 (setting [6]).
Consider DRIRH-LTASG, for which the entries for the “Kobs” value at MMP-2 [1] (setting [3]) and at MMP-9 (setting [4]) were 6688.74 M⁻¹ s⁻¹ and 3964.21 M⁻¹ s⁻¹, respectively.
Taken in the same sequence, the figures for DVAFH-LTASG were 1925.41 M⁻¹ s⁻¹ and 1283.43 M⁻¹ s⁻¹.
Consider DYARA-MTASG, for which the “Kobs” value came out at 4082.43 M⁻¹ s⁻¹ at MMP-2 [1] (setting [5]) and 3438.54 M⁻¹ s⁻¹ at MMP-9 (setting [6]).
For the substance EAVGN-LTASG, the “Kobs” value came to 12792.1 M⁻¹ s⁻¹ on MMP-2 [1] (setting [5]) and 585.336 M⁻¹ s⁻¹ on MMP-9 (setting [6]).
EHNLP-LTASG: the results for the “Kobs” value at MMP-2 [1] (setting [3]) and on MMP-9 (setting [4]) were 799.117 M⁻¹ s⁻¹ and 0 M⁻¹ s⁻¹, respectively.
For the substance EKVML-MTASG, the “Kobs” value was 0 M⁻¹ s⁻¹ at MMP-2 [1] (setting [3]) and 27.918 M⁻¹ s⁻¹ at MMP-9 (setting [4]).
For ELAWH-LTASG, the “Kobs” value on MMP-2 [1] (setting [5]) is 1981.53 M⁻¹ s⁻¹; on MMP-9 (setting [6]), 1373.05 M⁻¹ s⁻¹.
Consider ELPNF-LTASG, for which the “Kobs” value is 951.362 M⁻¹ s⁻¹ on MMP-2 [1] (setting [3]) and 231.616 M⁻¹ s⁻¹ at MMP-9 (setting [4]).
Regarding ELYAS-LTASG, the results for the “Kobs” value on MMP-2 [1] (setting [3]) and on MMP-9 (setting [4]) were 12792.1 M⁻¹ s⁻¹ and 0 M⁻¹ s⁻¹, respectively.
With EPIYN-LTASG, the “Kobs” value on MMP-2 [1] (setting [3]) was determined as 619.843 M⁻¹ s⁻¹; on MMP-9 (setting [4]), 2761.81 M⁻¹ s⁻¹.
Regarding EQLAN-MTASG, the entries for the “Kobs” value on MMP-2 [1] (setting [3]) and on MMP-9 (setting [4]) were 7386.83 M⁻¹ s⁻¹ and 386.839 M⁻¹ s⁻¹, respectively.
ERIWA-LTASG: the “Kobs” value is 1465.65 M⁻¹ s⁻¹ on MMP-2 [1] (setting [5]) and 3344.37 M⁻¹ s⁻¹ at MMP-9 (setting [6]).
Taken in the same sequence, the figures for ERLLH-LTASG were 2837.92 M⁻¹ s⁻¹ and 231.616 M⁻¹ s⁻¹.
On to ERPGW-LTASG, for which the “Kobs” value on MMP-2 [1] (setting [3]) stood at 7386.83 M⁻¹ s⁻¹; on MMP-9 (setting [4]) it was 3438.54 M⁻¹ s⁻¹.
As for ESAQM-ITASG, the entries for the “Kobs” value on MMP-2 [1] (setting [3]) and on MMP-9 (setting [4]) were 142.481 M⁻¹ s⁻¹ and 0 M⁻¹ s⁻¹, respectively.
ESPSF-LTASG: the “Kobs” value is 12792.1 M⁻¹ s⁻¹ on MMP-2 [1] (setting [5]) and 3741.87 M⁻¹ s⁻¹ on MMP-9 (setting [6]).
Regarding EVSQH-LTASG, the results for the “Kobs” value at MMP-2 [1] (setting [3]) and at MMP-9 (setting [4]) were 690.17 M⁻¹ s⁻¹ and 551.253 M⁻¹ s⁻¹, respectively.
Taken in the same sequence, the figures for EVTMW-LTASG were 551.253 M⁻¹ s⁻¹ and 951.362 M⁻¹ s⁻¹.
In the case of FAAYS-LTASG, the “Kobs” value at MMP-2 [1] (setting [3]) was determined as 5667.28 M⁻¹ s⁻¹; on MMP-9 (setting [4]) it was 12792.1 M⁻¹ s⁻¹.
Consider FHIAH-LTASG, for which the “Kobs” value on MMP-2 [1] (setting [3]) is 12792.1 M⁻¹ s⁻¹; at MMP-9 (setting [4]) it was 3850.82 M⁻¹ s⁻¹.
Turning to FIARA-LTASG, the “Kobs” value on MMP-2 [1] (setting [3]) and on MMP-9 (setting [4]) was 12792.1 M⁻¹ s⁻¹ each time.
Turning to FMMGN-MTASG, the “Kobs” value on MMP-2 [1] (setting [3]) worked out at 12792.1 M⁻¹ s⁻¹; on MMP-9 (setting [4]), 84.609 M⁻¹ s⁻¹.
With FMYSH-LTASG, the “Kobs” value at MMP-2 [1] (setting [5]) came out at 7815.03 M⁻¹ s⁻¹; at MMP-9 (setting [6]), 0 M⁻¹ s⁻¹.
Taken in the same sequence, the figures for FRVEP-LTASG were 323.705 M⁻¹ s⁻¹ and 261.974 M⁻¹ s⁻¹.
FTPLN-MTASG: the figures for the “Kobs” value at MMP-2 [1] (setting [3]) and at MMP-9 (setting [4]) were 12792.1 M⁻¹ s⁻¹ and 10866.7 M⁻¹ s⁻¹, respectively.
Consider FTVHM-LTASG, for which the “Kobs” value at MMP-2 [1] (setting [5]) was 1418.96 M⁻¹ s⁻¹; at MMP-9 (setting [6]), 1513.13 M⁻¹ s⁻¹.
Taken in the same sequence, the figures for GAAWG-LNTAS were 201.585 M⁻¹ s⁻¹ and 836.403 M⁻¹ s⁻¹.
For GALDW-MSTAS, the “Kobs” value on MMP-2 [1] (setting [3]) and at MMP-9 (setting [4]) was 0 M⁻¹ s⁻¹ each time.
As for GAPAF-LKTAS, the results for the “Kobs” value at MMP-2 [1] (setting [3]) and on MMP-9 (setting [4]) were 12792.1 M⁻¹ s⁻¹ and 10866.7 M⁻¹ s⁻¹, respectively.
Regarding GAPDQ-LSTAS, the “Kobs” value on MMP-2 [1] (setting [5]) is 142.481 M⁻¹ s⁻¹; on MMP-9 (setting [6]), 323.705 M⁻¹ s⁻¹.
For GAPSS-LRTAS, the “Kobs” value at MMP-2 [1] (setting [3]) and on MMP-9 (setting [4]) was 12792.1 M⁻¹ s⁻¹ in each case.
GCAQE-LTTAS: the “Kobs” value at MMP-2 [1] (setting [5]) was 113.394 M⁻¹ s⁻¹; on MMP-9 (setting [6]), 27.918 M⁻¹ s⁻¹.
As for GCLMA-LTTAS, the entries for the “Kobs” value at MMP-2 [1] (setting [3]) and on MMP-9 (setting [4]) were 6131.32 M⁻¹ s⁻¹ and 2837.92 M⁻¹ s⁻¹, respectively.
On to GDVRH-IFTAS, for which the “Kobs” value at MMP-2 [1] (setting [5]) turned out to be 231.616 M⁻¹ s⁻¹; on MMP-9 (setting [6]), 261.974 M⁻¹ s⁻¹.
For WGNM, in the assay with MMP-2 [2] (setting [7]), the avg_RP amounted to 3.7232.
Turning to WHGL, the avg_RP in the assay with MMP-2 [2] (average relative probability of the tetramer, redundant tetramers averaged out) was found to be 0.5588.
In the assay on MMP-2 [2] (setting [7]), WHNM showed an avg_RP of 0.
For WLAL, the avg_RP in the assay on MMP-2 [2] (setting [7]) was 1.2175.
Consider WLNL, for which, in the assay on MMP-2 [2] (setting [7]), the avg_RP amounted to 0.1218.
For WLPI, the avg_RP in the assay on MMP-2 [2] (setting [7]) is 0.6666.
